Literature values, collected in US20140107053A1, “APPLES WITH HIGH POLYPHENOLIC CONTENT” (CORESSENCE LIMITED, priority 2006, published 2014).

How the values were obtained:
[1] = compared to (−)-epicatechin monomers (Shoji et al. 2006)
[2] = indicated by Tmax values in human studies

Row | Compound | site of absorption [2] | detection in human plasma | further results
1 | O.Oc1cc(O)c2c(c1)O[C@H](c1ccc(O)c(O)c1)[C@@H](O)C2 [catechin] | absorbed mainly in the small intestine | – | bioavailability [1]: relatively low bioavailability
2 | epicatechin | absorbed mainly in the small intestine | – | –
3 | Oc1cc(O)c2c(c1)O[C@H](c1ccc(O)c(O)c1)[C@H](O)[C@H]2c1c(O)cc2c(c1O)C[C@@H](O)[C@@H](c1ccc(O)c(O)c1)O2 [Apple B5, epicatechin-(4β-6)-epicatechin] | – | – | detection in plasma (after chocolate consumption (Holt et al. 2002)): could not be detected

The next lines start with results.

Row | site of absorption [2] | detection in human plasma | Compound | further results
4 | – | detected at low levels | Oc1cc(O)c2c(c1)O[C@H](c1ccc(O)c(O)c1)[C@H](O)[C@H]2c1c(O)cc(O)c2c1O[C@H](c1ccc(O)c(O)c1)[C@H](O)C2 [Apple B2, epicatechin-(4β-8)-epicatechin] | –
5 | – | detected at low levels | Oc1cc(O)c2c(c1)O[C@H](c1ccc(O)c(O)c1)[C@H](O)[C@H]2c1c(O)cc(O)c2c1O[C@H](c1ccc(O)c(O)c1)[C@@H](O)C2 [Apple B1, epicatechin-(4β-8)-catechin] | –
